Holding throughout (format): cell-based, human
Assay [1] has as its system p-ERK in AsPC-1 cells (KRAS G12D mutation). Description: Cell p-ERK assay (HTRF) in AsPC-1 cells. As for the experimental part:
(§1) AsPC-1 cells were purchased from ATCC, Cat. No. CRL-1682: NCI-H441 cells were purchased from ATCC, Cat. No. HTB-174: RPMI-1640 medium was purchased from Gibco, Cat. No. I1875-093: FBS was purchased from Gibco, Cat. No. 10099-141C: penicillin/streptomycin double-antibiotic solution (PS) was purchased from Gibco, Cat. No. 15140-122: trypsin (containing EDTA) was purchased from Gibco, Cat. No. 25200-072; DMSO was purchased from VWRAMRESCO, Cat. No. 0231-500ML; 96-well cell culture plates were purchased from Corning, Cat. No. 3599: white-bottomed, opaque 96-well plates were purchased from Cisbio, Cat. No. 66PL96025; Advance ERK phospho-T202/Y204 kit was purchased from Cisbio, Cat. No. 64AERPEH; cell counter was purchased from CHEMOMETEC, model: NC-200; microplate reader was purchased from PerkinElmer, model: EnVision.
(§2) AsPC-1, a human pancreatic cancer cell strain endogenously containing a KRAS^G12D mutation, was cultured in a complete medium containing RPMI-1640+10% FBS+1% PS. NCI-H441, a human non-small cell lung cancer cell strain endogenously containing a KRAS^G12V mutation, was cultured in a complete medium containing RPMI-1640+10% FBS+1% PS.
(§3) The cells were digested with trypsin (containing EDTA), collected in their corresponding complete media, and counted. The density of the cell suspensions was adjusted with their corresponding complete media, and 10000 AsPC-1 cells or 20000 NCI-H441 cells per well were seeded into a 96-well cell culture plate, with the volume of the medium in each well being 80 μL.
(§4) The cell culture plate was incubated in an incubator at 37° C. with 5% CO2 overnight. A series of 3.16-fold gradient dilutions of a 1000- compound stock solution were prepared with DMSO, and then diluted 200-fold with the complete medium described above to give 5′ compound stock solutions. On the day after cell seeding, 20 μL of the 5× compound stock solution was added to each cell culture well. As a result, the final concentration of the compound in the cell culture well became 1×, and the DMSO content in the well was 0.1%. In addition to the compound-treated wells described above, cell-containing DMSO control wells were also set. A complete medium containing 0.5% DMSO was added at 20 μL/well. After the mixture was well mixed, the culture plate was incubated in the incubator at 37° C. with 5% CO2 for another 3 h. The medium was then removed from the culture wells, and 50 μL of cell lysis buffer (from Advance ERK phospho-T202,Y204 kit) was added to each well. The mixture was well mixed and incubated for 30 min. Then, 16 μL of the mixture was transferred to a white-bottomed, opaque 96-well assay plate, and separately, 16 μL of cell lysis buffer was added to additional wells (serving as blank wells) in the assay plate. After the transfer was completed, 4 μL of p-ERK HTRF antibody mixture (from Advance ERK phospho-T202/Y204 kit) was added to each well of the assay plate, followed by a 4-hour incubation. The HTRF signal values (RLU) were then measured using a microplate reader, and the inhibition rate of the compound against p-ERK levels was calculated as follows: IR (%)=(RLUDMSO−RLUcompound)/(RLUDMSO−RLUblank)×100%, where RLUDMSO is the average HTRF signal value from the DMSO control well samples, RLUblank is the average HTRF signal value from the blank well samples, and RLUcompound is the HTRF signal value from the compound-treated well samples. Using an XLfit software, the IR (%) values were plotted against the logarithm of the compound concentrations, and the dose-response curves were fitted using the four-parameter method to calculate the IC50 values.
A general note: In TR-FRET formats the signal depends on donor and acceptor labels being close together.

In assay [2] the test system is p-ERK in NCI-H441 cells (KRAS G12V mutation). Description: Cell p-ERK assay (HTRF) in NCI-H441 cells. The protocol: as §1, §2, §3, §4
The next assay relates to NCI-H441 cells. Description: 3D cell proliferation assay (CellTiter Glo-3D), NCI-H441. The settings on record: medium with 2% FBS, read-out: H441 AP IC50. The source says: MIA PaCa-2 cells were purchased from ATCC, Cat. No. CRL-1420; AsPC-1 cells were purchased from ATCC, Cat. No. CRL-1682; NCI-H441 cells were purchased from ATCC, Cat. No. HTB-174: NCI-H1975 cells were purchased from ATCC. Cat. No. CRL-5908; DMEM medium was purchased from Gibco, Cat. No. 11995-065: RPMI-1040 medium was purchased from Gibco. Cat. No. H 18754093; FBS was purchased from Gibco, Cat. No. 10099-141C. penicillin, streptomycin double-antibiotic solution (PS) was purchased from Gibco, Cat. No. 15140-122; Horse serum was purchased from Gibco. Cat. No. 16050130: trypsin (containing EDTA) was purchased from Gibco, Cat. No. 25200-072; DMSO was purchased from VWRAMRESCO, Cat. No. 0231-500ML; 384-well cell culture plates were purchased from Corning, Cat. No. 3830; white-bottomed, opaque 384-well assay plates were purchased from Corning, Cat. No. 3570. CellTiter Glo-3D) kit was purchased from Promega. Cat. No. G9683; cell counter was purchased from CHEMOMETEC, model: NC-200: microplate reader was purchased from PerkinElmer, model: EnVision.
MIA PaCa-2, a human pancreatic cancer cell strain endogenously containing a KRAS^G12C mutation, was cultured in a complete medium containing DMEM+10% FBS+2.5% Horse serum+1% PS. AsPC-1, a human pancreatic cancer cell strain endogenously containing a […] mutation, was cultured in a complete medium containing RPMI-1640+10% FBS+1% PS. NCI-H441 cells, a human lung cancer cell strain endogenously containing a […] mutation, were cultured in a complete medium containing RPMI-1640+10% FBS+1% PS. NCI-H1975, a KRAS wild-type human lung cancer cell strain whose cell proliferation depends on KRAS activity, was cultured in a complete medium containing RPMI-1640+10% FBS+1% PS.
The cells were digested with trypsin (containing EDTA), collected in their respective low-serum complete media containing 2% FBS (for MIA Paca-2 cell culture: DMEM+2% FBS+0.5% Horse serum+1% PS), and counted. After the cell density was adjusted as required, 200 MIA PaCa-2 cells, 800 AsPC-1 cells, 800 NCI-H441 cells, or 400 NCI-H1975 cells per well were seeded into a 384-well cell culture plate, with the volume of the medium in each well being 45 μL. The cell culture plate was incubated in an incubator at 37° C. with 5% CO2, overnight. A series of 3.16-fold gradient dilutions of a 1000× compound stock solution were prepared with DMSO, and then diluted 100-fold with the complete medium containing 2% FBS described above to give 10- compound stock solutions. On the day after cell seeding, 5 μL of the 10- compound stock solution was added to each cell culture well. As a result, the final concentration of the compound in the cell culture well became 1×, and the DMSO content in the well was 0.1%. In addition to the compound-treated wells described above, cell-containing DMSO control wells (with 5 μL of the complete medium containing 1% DMSO added to each well) and cell-free medium control wells (containing 50 μL of the complete medium with 2% FBS) were also set. The culture plate was incubated in an incubator at 37° C. with 5% CO2 for another 5 days, and then 30 μL of CellTiter-Glo working solution was added to each well. The mixture was well mixed, incubated for 30 min, left to stand at room temperature for 30 min, and then transferred to a white-bottomed, opaque 384-well assay plate at 40 μL/well. The chemiluminescence values (RLU) were measured using a microplate reader, and the cell proliferation inhibition rate for each well was calculated: IR (%)=(RLUDMSO—RLUcompound)/(RLUDMSO−RLUblank)×100%, where RLUDMSO is the average RLU signal value from the DMSO control well samples, RLUblank is the average RLU signal value from the medium control well samples, and RLUcompound is the RLU signal value from the compound-treated well samples. […]
On the technique in general: ATP-based viability assays read luminescence as a measure of living cells.

The mark [3] stands for this setting: NCI-H441 cells, 3 h compound incubation, HTRF p-ERK T202/Y204, read-out: H441 p-ERK IC50.
The mark [4] stands for this setting: Homo sapiens, NCI-H441, 3 h, NCI-H441 cells, 3 h compound incubation, HTRF p-ERK T202/Y204, read-out: H441 p-ERK IC50.
The mark [5] stands for this setting: 3D cell proliferation (CellTiter Glo-3D).

Read-outs that look alike come from different tables or passages of the source.

In general, IC50 refers to the concentration at which inhibition is half-maximal.

Turning to `CCn1c(-c2cc(C#CCN3CCS(=O)(=O)CC3)cnc2C(C)OC)c2c3cc(ccc31)-c1csc(n1)CC(NC(=O)CC1CC1)C(=O)N1CCCC(N1)C(=O)OCC(C)(C)C2` (atropisomer, axis not shown; (Ra)) [Compound Z962, 2-cyclopropyl-N-((6^3S,4S,Z)—(Ra)-1^2-(5-(3-(1,1-dioxidothiomorpholino)prop-1-yn-1-yl)-2-((S)-1-methoxyethyl)pyridin-3-yl)-1^1-ethyl-10,10-dimethyl-5,7-dioxo-6^1,6^2,6^3,6^4,6^5,6^6-hexahydro-1^1H-8-oxa-2(4,2)-thiazola-1(5,3)-indola-6(1,3)-pyridazinacycloundecaphane-4-yl)acetamide], the IC50 in assay [1] (AsPC-1 cells, 3 h compound incubation, HTRF p-ERK T202/Y204, read-out: AsPC-1 p-ERK IC50) came out at 0.26 nM; in assay [2] (setting [3]) it was 0.15 nM.

With `CCn1c(-c2cc(OCCN3CCOCC34CC4)cnc2[C@H](C)OC)c2c3cc(ccc31)-c1csc(n1)C[C@H](NC(=O)C1[C@@H](C)[C@H]1C)C(=O)N1CCC[C@H](N1)C(=O)OCC1(CC1)C2` (stereo partly drawn) [Compound Z385, (1r,2R,3S)—N-((3′S,4′S,Z)-2′-(5-(2-(7-oxa-4-azaspiro[2,5]octan-4-yl)ethoxy)-2-((S)-1-methoxyethyl)pyridin-3-yl)-1-ethyl-5′,7′-dioxospiro[cyclopropane-1,10′-8-oxa-2(4,2)-thiazola-1(5,3)-indola-6(1,3)-pyridazinacycloundecaphan]-4′-yl)-2,3-dimethylcyclopropane-1-carboxamide], the IC50 in assay [1] (Homo sapiens, ASPC1, 3 h, AsPC-1 cells, 3 h compound incubation, HTRF p-ERK T202/Y204, read-out: AsPC-1 p-ERK IC50) turned out to be 33.5 nM; in assay [2] (setting [4]) it was 20.7 nM.

On to `CCn1c(-c2cc(C#CCN3CCC(O)(c4cccc(C)[n+]4[O-])CC3)cnc2[C@H](C)OC)c2c3cc(ccc31)-c1csc(n1)C[C@H](NC(=O)[C@H]1[C@H](C)[C@@H]1C)C(=O)N1CCC[C@H](N1)C(=O)OCC(C)(C)C2` (atropisomer, axis not shown; (Ra)) [Compound Z1055, 2-(1-(3-(5-((6^3S,4S,Z)-4-((r,2R,3S)-2,3-dimethylcyclopropane-1-carboxamido)-1^1-ethyl-10,10-dimethyl-5,7-dioxo-6^1,6^2,6^3,6^4,6^5,6^6-hexahydro-1^1H-8-oxa-2(4.2)-thiazola-1(5,3)-indola-6(1.3)-pyridazinacycloundecaphane-12-yl)-(Ra)-6-((S)-1-methoxyethyl)pyridin-3-yl)prop-2-yn-1-yl)-4-hydroxypiperidin-4-yl)-6-methylpyridine 1-oxide], for which the IC50 worked out at 0.32 nM in assay [1] (Homo sapiens, ASPC1, 3 h, read-out: AsPC-1 p-ERK IC50(nM)) and 0.19 nM in assay [2] (Homo sapiens, NCI-H441, 3 h, read-out: H441 p-ERK IC50(nM)).

For the molecule `CCn1c(-c2cc(N3CCN(C)CC3)cnc2[C@H](C)OC)c2c3cc(ccc31)-c1csc(n1)C[C@H](Nc1nnc3n1CCCC3)C(=O)N1CCC[C@H](N1)C(=O)OCC(C)(C)C2` (atropisomer, axis not shown; (Ra)) [Compound Z423], the IC50 was 33.3 nM in assay [2] (setting [4]) and 74.2 nM in the assay on NCI-H441 cells (Homo sapiens, NCI-H441, 3D cell proliferation (CellTiter Glo-3D)).

On to `CCn1c(-c2cc(OCCN3CC[S+]([O-])CC3)cnc2[C@H](C)OC)c2c3cc(ccc31)-c1csc(n1)C[C@H](NC(=O)[C@H]1[C@H](C)[C@@H]1C)C(=O)N1CCC[C@H](N1)C(=O)OCC(C)(C)C2` (atropisomer, axis not shown; (Sa)) [Compound Z600-1], for which the IC50 in assay [2] (setting [3]) amounted to 82.7 nM; in the assay on NCI-H441 cells (setting [5]), 96.3 nM.

Turning to `CCn1c(-c2cc(C#CCN3CCCOCC3)cnc2[C@H](C)OC)c2c3cc(ccc31)-c1csc(n1)C[C@H](NC(=O)[C@H](C(C)C)N(C)[S@@](C)(=O)=NC)C(=O)N1CCC[C@H](N1)C(=O)OCC(C)(C)C2` (single isomer, unassigned) [Compound Z912-2], the IC50 in assay [2] (setting [3]) came to 3.41 nM; in the assay on NCI-H441 cells (setting [5]), 8.59 nM.

The record behind these values is patent US20260234165A1, “MACROCYCLIC COMPOUNDS, PREPARATION METHOD THEREFOR, AND USE THEREOF” (GENFLEET THERAPEUTICS (SHANGHAI) INC., priority 2004, published 2026).
